From paper PMC3689833, “Neurochemical Changes in the Mouse Hippocampus Underlying the Antidepressant Effect of Genetic Deletion of P2X7 Receptors” (PLoS ONE, 2013)

How the values were obtained:
acute hippocampal slices = assay: [3H]Glutamate and endogenous glutamate release from acute hippocampal slices; assay type: cell-based, mouse
Method: The [^3H]Glu release experiments were conducted using the method described in our previous papers. Briefly, the mice were anaesthetized under light CO2 inhalation, and subsequently decapitated. The hippocampus was dissected from each mouse in ice-cold Krebs solution saturated with 95% O2 and 5% CO2, sectioned (400-µm-thick slices) using a McIlwain tissue chopper and incubated in 1 ml of modified Krebs solution (113 mM NaCl, 4.7 mM KCl, 2.5 mM CaCl2, 1.2 mM KH2PO4, 1.2 mM MgSO4, 25.0 mM NaHCO3, and 11.5 mM glucose), pH 7.4, in the presence of 5 µCi/ml [^3H]glutamic acid ([^3H]Glu, 9.8×10^−8 M, specific activity 51 Ci/mmol; Perkin Elmer) for 45 min. The medium was bubbled with 95% O2 and 5% CO2 and maintained at 32°C. After loading, the slices were continuously superfused with 95% O2 and 5% CO2-saturated modified Krebs solution (flow rate: 0.7 ml/min).
Subsequently, the perfused samples were collected over a 3-min period and measured for tritium content. At 6 min after the start of the collection, the slices were subjected to a 6-min perfusion of the agonist (ATP) at various concentrations (1, 3, 6 and 10 mM) and then changed to normal Krebs solution until the end of the collection period. In some experiments, the P2X1 receptor antagonist, NF449 (100 nM), or the selective P2rx7 antagonist Brilliant blue G (100 nM) was applied to the perfusion solution at 15 min before the beginning of the ATP perfusion.
The radioactivity released from the preparations was measured using a Packard 1900 Tricarb liquid scintillation spectrometer, using Ultima Gold Scintillation cocktail. The release of tritium was expressed as a percentage of the amount of radioactivity in the tissue at the sample collection time (fractional release). The tritium uptake in the tissue was determined as the sum of release+the tissue content after the experiment and expressed in Bq/g. For the evaluation of the basal tritium outflow the fractional release measured in four consecutive 3 min samples under drug free conditions were taken into account. The ATP-induced [^3H]Glu efflux calculated as the net release in response to the respective stimulus by subtracting the release before the stimulation from the values measured after stimulation. Selected samples collected under resting conditions and during the peak of the ATP-evoked response were subjected to further HPLC analyses.
The separation of pre-column dansylated amino acids was performed using a gradient elution-working mode at ambient temperature. The mobile phase A consisted of 5/95 (v/v) 78/22 acetonitrile/methanol in 15 mM ammonium formate buffer, and the mobile phase B was composed of 90/10 (v/v 78/22) acetonitrile/methanol in ammonium formate buffer, pH 3.7. The mobile phase B increased linearly (at 0.11 min to 50% 17 min to 72% and 26 min to 100%, followed by a final run to 54 min), the flow rate was 0.7 ml/min. The analytical and the trap column were equilibrated for 10 min, and enrichment and clean-up procedures were performed. The dansylated derivatives were detected using an absorbance detector (Agilent 1100) at a 319 nm wavelength. The retention time of the dansylated Glu was 11.4 min. Pre-column derivatization was performed by mixing 50 µl of dansyl chloride prepared by dissolving 5 mg 5-(dimethylamino)naphthalene-1-sulfonyl chloride in acetonitrile daily and adding 50 µl of 2 M sodium carbonate, which contained norvaline (20 µM) as an internal standard in 25 µl of sample. After a 10-min reaction time at 60°C, the mixture was acidified using 25 µl of 6 M formic acid and injected onto the “trap-column”.

[1] = tested on: P2rx7+/+ and P2rx7−/− mice; assay: Sucrose preference test (SPT), LPS-induced anhedonia; assay type: in vivo, mouse; conditions: for inhibitory effect on LPS-induced anhedonia in P2rx7−/− mice: acute treatment; for effect on LPS-induced anhedonia in P2rx7−/− mice: subacute 4-day treatment, compared with P2rx7+/+
Method: The experiments were performed using the two-bottle sucrose preference paradigm. The decreased preference for sucrose vs. water in this test has been proposed to reflect impaired sensitivity towards reward and to model anhedonia. Mice were offered a choice of 2% sucrose solution or water during 12-hour nocturnal periods (starting at 19∶00). The bottles were weighed before and after each test session to monitor sucrose and water consumption. The relative position of the sucrose and water bottles were swapped every night to avoid place preferences. The baseline sucrose intake was measured under a habituation period of 3–4 days before administering the treatments, and the mean volume ingested over the last 3 training sessions was used as a baseline value. The sucrose consumption was measured for 4 consecutive nights after LPS (0.2 mg/kg i.p.) or saline administration and expressed as g/100 g body weight or as a percentage of the baseline (%).

[2] = tested on: BDNF level in hippocampal slices; assay: BDNF protein assay (ELISA), in vitro study in hippocampal slices; assay type: cell-based, mouse; conditions: for effect on the inhibitory effect of BzATP on BDNF level / effect on basal BDNF level, compound alone (no BzATP): CNQX 10 µM, TCN-201 10 µM; for effect on the inhibitory effect of BzATP on BDNF level / effect on basal BDNF level, compound alone (no BzATP) / BDNF level in hippocampal slices in the presence of BzATP: RO-256981 3 µM, MCPG 200 µM; for BDNF level in hippocampal slices in the presence of BzATP: + BzATP 100 µM, BBG 100 nM, DHPG 100 µM; for BDNF level in hippocampal slices, compound alone: RO-256981 3 µM 15 min, DHPG 100 µM 10 min
Method: The P2rx7 wild type and knockout mice were anesthetized under light CO2 inhalation and decapitated. The hippocampus was dissected in ice-cold Krebs solution saturated with 95% O2 and 5% CO2, sectioned (400 µm thick slices) using a McIlwain tissue chopper and incubated in 2 ml of modified Krebs solution in the presence of 1 ml Hibernate medium, ascorbic acid (300 µM) and Na2EDTA (30 µM) for 60 min. The medium was bubbled continuously with 95% O2 and 5% CO2 and maintained at 37°C. The P2rx7 agonist, BzATP, was added to the incubation solution for 30 min, whereas BBG was applied 15 min before BzATP application. RO-256981, 6-cyano-7-nitroquinoxaline-2,3-dione (CNQX) and 3-Chloro-4-fluoro-N-[4[[2(phenylcarbonyl)hydrazino]carbonyl]benzyl] benzenesulfonamide (TCN-201) were applied for 15 min, while MCPG was administered for 30 min. The group I metabotropic glutamate receptor agonist, dihydroxyphenylglycine (DHPG), was administered for 10 min. The DHPG, MCPG, and RO-256981 dosages were chosen based on previous studies, [47], [48]. In the experiments with BzATP, Mg^2+ was omitted from the incubation solution. The hippocampal slices were collected, frozen on dry ice and stored at −70°C until further investigation. Each experimental group contained 3–4 mice.
At the time of analysis, the samples were removed from the freezer and weighed. The BDNF extraction procedure was performed in accordance with the methods of a previous study. For the BDNF assays, 2 ml lysis buffer (100 mM PIPES, pH 7, 500 mM NaCl, 0.2% Triton X-100, 0.1% NaN3, 2% BSA, 2 mM EDTA, 200 µM PMSF, 10 µg/mL aprotinin, 1 µg/mL leupeptin, and 0.5 mM sodium vanadate) was added to each sample, and the hippocampus was sonicated at power level 2 using pulses at 1 sec intervals for 10–15 sec. Subsequently, the samples were centrifuged at 16,000 × g for 30 min at 4°C. 100 µl aliquots of the resulting supernatants were removed and diluted with 400 µl of DPBS buffer (137 mM NaCl, 2.68 mM KCl, 1.47 mM KH2PO4, 8.1 mM Na2HPO4 (pH 7.35), 0.9 mM CaCl2·H2O, and 0.5 mM MgCl2·H2O). The supernatants were collected and stored at −70?C until further analysis. For the total free BDNF measurement, the samples were acid treated with 1 µl of 1 N HCl for each 50 µl of diluted samples to decrease the pH to 2.5, followed by incubation at room temperature for 15 min. The samples were neutralized with 1 µl of 1 N NaOH for each 50 µl of diluted samples. The levels of BDNF (both precursor and mature forms) expression were evaluated using an enzyme-linked immunosorbent assay (ELISA) kit and a BDNF Emax ImmunoAssay System (Promega Corporation, Madison, WI, USA), which is specific for mouse BDNF protein, according to the manufacturer’s instructions. The BDNF levels were calculated by plotting the optical density (OD) of each sample against the standard curve. A seven-point standard curve using two-fold serial dilutions in Reagent Diluent (according the manufacturer’s instructions) and a high standard of 500 pg/ml were used for the determination of BDNF levels. The assay detection limits were <15 pg/ml. Absorbance was measured at 450 nm using a Perkin-Elmer Victor 3V 1420 Multilabel Counter.

[3] = P2rx7+/+ slices, BzATP 100 µM 30 min, Mg2+-free

O=C(Nc1cc(C(=O)Nc2ccc(S(=O)(=O)[O-])cc2S(=O)(=O)[O-])cc(C(=O)Nc2ccc(S(=O)(=O)[O-])cc2S(=O)(=O)[O-])c1)Nc1cc(C(=O)Nc2ccc(S(=O)(=O)[O-])cc2S(=O)(=O)[O-])cc(C(=O)Nc2ccc(S(=O)(=O)[O-])cc2S(=O)(=O)[O-])c1.[Na+].[Na+].[Na+].[Na+].[Na+].[Na+].[Na+].[Na+] [NF449, 4,4′,4′′,4′′′-[Carbonylbis(imino-5,1,3-benzenetriyl-bis(carbonylimino))]tetrakis-1,3-benzenedisulfonic acid, octasodium salt]
residual ATP-evoked [3H]Glu efflux in presence of antagonist (acute hippocampal slices; P2rx7−/− slices, ATP 10 mM, antagonist 100 nM 15 min before ATP): sensitive to inhibition

Nc1ncnc2c1ncn2[C@@H]1O[C@H](COP(=O)(O)OP(=O)(O)OP(=O)(O)O)[C@@H](O)[C@H]1O [ATP]
net release of tritium ([3H]Glu, fractional release) (acute hippocampal slices; P2rx7+/+ slices, 10 mM ATP, 6-min perfusion): 3.34±0.57%
endogenous glutamate level in effluent (HPLC) (acute hippocampal slices; P2rx7+/+ slices, 10 mM ATP, peak vs resting): remarkable elevation
efflux of [3H]Glu (acute hippocampal slices; P2rx7+/+ slices, 6-min perfusion, 1–10 mM): concentration-dependent increase
net [3H]Glu efflux (fractional release) (acute hippocampal slices; P2rx7−/− slices, 10 mM ATP): 0.25±0.43%

CN(C)CCCC1(c2ccc(F)cc2)OCc2cc(C#N)ccc21 (stereo not shown) [citalopram]
inhibitory effect on LPS-induced anhedonia in P2rx7−/− mice [1]: largely preserved
effect on LPS-induced anhedonia in P2rx7−/− mice [1]: largely preserved

O=C(NNC(=O)c1ccc(CNS(=O)(=O)c2ccc(F)c(Cl)c2)cc1)c1ccccc1 [TCN-201, 3-Chloro-4-fluoro-N-[4[[2(phenylcarbonyl)hydrazino]carbonyl]benzyl] benzenesulfonamide]
effect on the inhibitory effect of BzATP on BDNF level ([2]; P2rx7+/+ slices, BzATP 100 µM): occluded
effect on basal BDNF level, compound alone (no BzATP) ([2]; P2rx7+/+ slices): unaffected

O=C(CC12CC3CC(CC(C3)C1)C2)Nc1cccc2nc(NCCNCCO)ccc12 [AZ-10606120]
amount of sucrose consumed on the 3rd day after LPS injection ([1]; P2rx7+/+ mice, acute injection 2 mg/kg i.p. 30 min before LPS, vs control): significantly higher
amount of sucrose consumed on the day after LPS injection ([1]; P2rx7+/+ mice, subacute treatment 2 mg/kg i.p., vs control): significantly higher
inhibitory effect on LPS-induced anhedonia in P2rx7−/− mice [1]: completely absent
effect on LPS-induced anhedonia in P2rx7−/− mice [1]: significantly attenuated

C[C@@H](CN1CCC(Cc2ccccc2)CC1)[C@@H](O)c1ccc(O)cc1.O=C(O)/C=C\C(=O)O [RO-256981, (αR,βS)-α-(4-Hydroxyphenyl)-β-methyl-4-(phenylmethyl)-1-piperidinepropanol maleate]
BDNF level in hippocampal slices in the presence of BzATP ([2]; P2rx7+/+ slices, Mg2+-free): 15.75 ± 0.44 pg/mL
effect on the inhibitory effect of BzATP on BDNF level ([2]; P2rx7+/+ slices, BzATP 100 µM): occluded
effect on basal BDNF level, compound alone (no BzATP) ([2]; P2rx7+/+ slices): decreased
BDNF level in hippocampal slices, compound alone ([2]; P2rx7+/+ slices): 15.20 ± 0.12 pg/mL

Nc1ncnc2c1ncn2[C@@H]1O[C@H](COP(=O)(O)OP(=O)(O)OP(=O)(O)O)[C@@H](OC(=O)c2ccc(C(=O)c3ccccc3)cc2)[C@H]1O [BzATP, 3′-O-(4-benzoyl-benzoyl)adenosine 5′-triphosphate]
BDNF level in hippocampal slices [2, 3]: 13.85 ± 0.98 pg/mL
decrease of basal BDNF level [2, 3]: 25.73%
effect on BDNF level ([2]; P2rx7−/− slices, BzATP 100 µM, Mg2+-free): without significantly affecting

N#Cc1cc2[nH]c(=O)c(=O)[nH]c2cc1[N+](=O)[O-] [CNQX, 6-cyano-7-nitroquinoxaline-2,3-dione]
effect on the inhibitory effect of BzATP on BDNF level ([2]; P2rx7+/+ slices, BzATP 100 µM): occluded
effect on basal BDNF level, compound alone (no BzATP) ([2]; P2rx7+/+ slices): decreased

CC(N)(C(=O)O)c1ccc(C(=O)O)cc1 (stereo not drawn) [MCPG, α-Methyl-4-carboxyphenylglycine]
BDNF level in hippocampal slices in the presence of BzATP ([2]; P2rx7+/+ slices, Mg2+-free): 6.09 ± 1.17 pg/mL
decrease of BDNF level in the presence of BzATP ([2]; P2rx7+/+ slices, BzATP 100 µM + MCPG 200 µM): 67.34%
effect on the inhibitory effect of BzATP on BDNF level ([2]; P2rx7+/+ slices, BzATP 100 µM): did not antagonize
effect on basal BDNF level, compound alone (no BzATP) ([2]; P2rx7+/+ slices): significantly diminished

NC(C(=O)O)c1cc(O)cc(O)c1 (stereo not shown) [DHPG, 3,5-dihydroxyphenylglycine]
BDNF level in hippocampal slices in the presence of BzATP ([2]; P2rx7+/+ slices, Mg2+-free): 54.14 ± 1.92 pg/mL
BDNF level in hippocampal slices, compound alone ([2]; P2rx7+/+ slices): 41.59 ± 0.40 pg/mL
